# Results: patent publication US11723947B2, “Anti-senescence compounds and uses thereof” (Erasmus University Medical Center Rotterdam, priority 2015, dated 2023)
# Read-outs that look alike come from different tables or passages of the source.
# Columns and labels:
# [1] = test system: LOX-IMVI; experiment: Viability of LOX-IMVI metastatic melanoma cells; format: cell-based, human
# Procedure: Assay as in FIG. 2C with increasing doses of Vemurafenib. […] LOX-IMVI however is resistant. […] Experiment as in FIG. 2C, but with LOX-IMVI treated with FOXO4 DRI alone, the BRAF^V600E-inhitors Vemurafenib or Dabrafenib, or the MEK inhibitor Trametinib alone, or a combination hereof. […] LOX-IMVI cells were incubated with FOXO4 DRI or Vemurafenib alone or in combination. The cells were co-treated with the pan-caspase inhibitor QVD-OPH to block caspase-dependent cell death. After 3 days the media was refreshed with new QVD-OPH containing media, but in the absence of FOXO4 DRI or Vemurafenib. At day 5 after initial treatment the cells were fixed and stained for Cytochrome C. Cytochrome C is present in the mitochondria in viable cells and is released into the cytosol when apoptosis is activated. Plotted are the number of cells showing release of Cytochrome C. […] LOX-IMVI were assessed for viability in the presence of FOXO4 DRI, the oxidative stress inhibitor N-Acetyl Cysteine (NAC) or the oxidative stressor H2O2. […]
# LOX-IMVI cells were plated for (i) cell viability assay as in example 1 by AqueousOne MTT assay, (ii) apoptosis by Cytochrome C release, (iii) longitudinal cell density assay, and incubated with the FOXO4 DRI peptide, Vemurafenib/Trametinib, or their combination, respectively. […] The % of cells with Cytochrome C release was scored.
# [2] = test system: IMR90 cells; experiment: Senescence markers in Doxorubicin-treated IMR90 in vitro; format: cell-based, human
# Procedure: IMR90 cells were exposed twice to 0.5 μM Doxorubicin with one day in between. SA-β-GAL activity was determined 7 days later. […] This figure complements FIG. 4A+B by showing that next to the senescence markers SA-β-Gal and p16^ink4a also the SASP marker IL-6 is elevated by Doxorubicin. […] Mice were i.p. injected with 10 mg/kg Doxorubicin and analyzed for RLUC on the indicated time-points. Changes in RLUC intensity for 5 animals are plotted for the indicated timepoints after injection. […] Following one dose of Doxorubicin (10 mg/kg, i.p.) the mice were treated with FOXO4 DRI (n=6; 4×10 mg/kg i.v.) or PBS (n=4; 4× Mock) and processed for RLUC imaging after 14 d. […] Mice treated as indicated in FIG. 4F were analyzed for Bioluminescence. […] H) To improve the window for measuring healthspan changes, the treatment regime from FIG. 4F) was extended with one additional dose of Doxorubicin and milder FOXO4 DRI treatment. Following two doses of Doxorubicin (both 10 mg/kg i.p.) the mice (n=3 each group) were subsequentially treated with PBS or FOXO4 DRI (3×5 mg/kg, 1 d in between) and 14 d later analyzed for changes in healthspan. […] Post-mortem analysis of liver sections from mice (n=2 each group) treated as in FIG. 4H and stained for FOXO4. The number of FOXO4 foci was objectively quantified using ImageJ. […] Liver sections from the experiment in FIG. 4I were stained for IL-6. […] Mice treated as depicted in FIG. 4H (n=9 for PBS, n=11 for FOXO4 DRI) were analyzed for total body weight before and after Doxorubicin-exposure followed by treatment with PBS or FOXO4 DRI. The ratio was plotted. […] Experiment as in FIG. 4H. n=3 animals per group.
# DAPI was used as a counterstain to visualize nuclei. […] The histograms show % viability for the indicated conditions (.
# [3] = test system: p16^ink4a-positive senescence; experiment: Doxorubicin-induced senescence in p16::3MR mice (RLUC bioluminescence, SA-beta-GAL); format: in vivo, mouse
# Procedure: IMR90 cells were exposed twice to 0.5 μM Doxorubicin with one day in between. SA-β-GAL activity was determined 7 days later. […] This figure complements FIG. 4A+B by showing that next to the senescence markers SA-β-Gal and p16^ink4a also the SASP marker IL-6 is elevated by Doxorubicin. […] Mice were i.p. injected with 10 mg/kg Doxorubicin and analyzed for RLUC on the indicated time-points. Changes in RLUC intensity for 5 animals are plotted for the indicated timepoints after injection. […] Following one dose of Doxorubicin (10 mg/kg, i.p.) the mice were treated with FOXO4 DRI (n=6; 4×10 mg/kg i.v.) or PBS (n=4; 4× Mock) and processed for RLUC imaging after 14 d. […] Mice treated as indicated in FIG. 4F were analyzed for Bioluminescence. […] H) To improve the window for measuring healthspan changes, the treatment regime from FIG. 4F) was extended with one additional dose of Doxorubicin and milder FOXO4 DRI treatment. Following two doses of Doxorubicin (both 10 mg/kg i.p.) the mice (n=3 each group) were subsequentially treated with PBS or FOXO4 DRI (3×5 mg/kg, 1 d in between) and 14 d later analyzed for changes in healthspan. […] Post-mortem analysis of liver sections from mice (n=2 each group) treated as in FIG. 4H and stained for FOXO4. The number of FOXO4 foci was objectively quantified using ImageJ. […] Mice treated as depicted in FIG. 4H (n=9 for PBS, n=11 for FOXO4 DRI) were analyzed for total body weight before and after Doxorubicin-exposure followed by treatment with PBS or FOXO4 DRI. […]
# Our senescence-detection model makes use of a construct in which the promoter of p16^ink4a drives a so-called trimodality reporter (3MR) referred to as p16::3MR. […] RLUC and RFP allow visualization of senescent cells in real-time through bioluminescence and fluorescence, respectively. […] On day 0, p16::3MR mice (Demaria et al., Developmental Cell, 31:6 p. 722-733 (2014)) including the Supplemental Experimental procedures) were i.p. injected with 10 mg/kg Doxorubicin and RLUC activity as measure of senescence was determined on the indicated timepoints. […]
# [4] = test system: Doxorubicin-treated mice; experiment: Doxorubicin-treated mice: liver sections, body weight, plasma ASAT and Amylase; format: in vivo
# Procedure: IMR90 cells were exposed twice to 0.5 μM Doxorubicin with one day in between. SA-β-GAL activity was determined 7 days later. […] Mice were i.p. injected with 10 mg/kg Doxorubicin and analyzed for RLUC on the indicated time-points. Changes in RLUC intensity for 5 animals are plotted for the indicated timepoints after injection. […] Mice treated as indicated in FIG. 4F were analyzed for Bioluminescence. […] Liver sections from the experiment in FIG. 4I were stained for IL-6. […] The ratio was plotted. […] Experiment as in FIG. 4H. n=3 animals per group.
# [5] = test system: Senescent and control IMR90; details: for % viability over Mock, senescent and non-senescent IMR90: 6 days
# Procedure: The selectivity index (S.I.) for the EC50 values was determined after […] (GraphPad Prism) of the curves. […] Real-time cell density was measured using an xCELLigence detection system (ACEA Biosciences). Prior to the start of the measurement 50 μL DMEM 10% FCS was added to each well of an E-plate view 16 (Roche) to determine background signal. Non-senescent (2000 cells per well) and senescent (5000 cells/well) IMR90 fibroblasts were then plated in 150 μl medium. 16 hours later the E-plate was placed in the xCELLigence reader and the cell density was recorded every 30 minutes. […] Measurements continued for the indicated time-points. […] Experiment as in FIG. 2C, but with the indicated peptides. […] Cells were plated in 4-well Poly-L-Lysine coated glass bottom 35 mm dishes (D141410; Matsumi, Japan) and incubated with NucView488 Caspase-3 (4440; Essen Bioscience). […] 8h after addition the real-time imaging was initiated and every 30 min a grid of 3×3 pictures was imaged. The imaging continued for another 6 days and the images were concatenated using Zen imaging software. […] After 6 days cell viability was determined as in FIG. 2C). […] Experiment as in FIG. 2C, but according to the indicated treatment plan. Instead of one single dose, three doses were given (one day in between) of ⅓ that concentration each time. […] Left: Experiment as in FIG. 2C, but on cells pretreated once daily for two days with IL-1α Receptor Antagonist (RA), which blocks IL-1α/β signaling, recombinant IL-6 and recombinant IL-1α/β. […] Right: Similar experiment as in the left panel, except viability measured one day earlier. […] In senescent cells p53 signaling causes upregulation of the cell-cycle arrest and pro-survival protein p21Cip1. […] Experiment as in FIG. 2K. […] Experiment as in FIG. 2c, but with control and senescent IMR90 stable transduced with shRNAs against p53 or a control shRNA (shGFP).
# A) Control IMR90 and IMR90 induced to senesce through 10Gy IR were plated in triplicate for each condition in a 96-well plate. […] After 6 days viability was determined through AqeousOne celltiter assay (Promega) according to the manufacturer's instructions.
# Non-senescent (=“normal”, proliferating) IMR90 cells (ATCC #CCL-186, a diploid primary human fibroblast adherent cell line derived from fetal lung tissue) were irradiated with 10Gy Gamma-IR (IR=irradiation). After 7 days these cells are senescent and can be used for experiments comparing them to their non-irradiated (=non-senescent) counterparts. Senescent and non-senescent IMR90 fibroblasts were plated for longitudinal cell density measurement using the xCELLigence system (ACEA Biosciences, Inc., San Diego, Calif.).
# (§1) 5000 senescent (obtained as described above) and 2000 non-senescent IMR90 fibroblasts were plated in 96-well plates incubated with concentrations of NQDI between 0-20 μM and after 6 days cell viability was determined by AqueousOne CellTiter (MTT) assay according to the manufacturer's instructions.
# as §1, with “R406, ranging from 16, 32, 64 to 128 nM” for “NQDI between 0-20 μM”
# Normal human IMR90 fibroblasts were exposed to 10 Gy Ionizing Radiation or treated 3× (bidaily) with 0.5 μM Doxorubicin. Seven days later they were processed for SA-β-Gal staining to visualize senescent cells. […] DAPI was used as a counterstain to visualize nuclei. […] After 6 days the cell viability was determined using an AqueousOne Celltiter (MTT) assay according to the manufacturer's instructions.
# [6] = test system: senescent and non-senescent IMR90 fibroblasts; experiment: Real-time cell density, xCELLigence, senescent and non-senescent IMR90 fibroblasts; format: cell-based, human; details: 2 μM on three consecutive days (24, 48 and 72 h)
# Procedure: Measurements continued for the indicated time-points. […] Experiment as in FIG. 2K.
# Cell density after time of plating was followed. […] NQDI is apparently rather safe even at high doses as as non-senescent cells are not affected by 20 uM NQDI.
compound,measurement,setting,value
CC(C)(C)c1nc(-c2cccc(NS(=O)(=O)c3c(F)cccc3F)c2F)c(-c2ccnc(N)n2)s1 [Dabrafenib],"LOX-IMVI viability, agent on its own",[1]; single agent,do not markedly affect LOX-IMVI viability
COc1cccc2c1C(=O)c1c(O)c3c(c(O)c1C2=O)C[C@@](O)(C(=O)CO)C[C@@H]3O[C@H]1C[C@H](N)[C@H](O)[C@H](C)O1 [Doxorubicin],SA-β-GAL expression,"[2]; IMR90, twice 0.5 μM, 7 days later",induces SA-β-GAL expression in IMR90 cells in vitro
same,IL-6 (SASP marker),[2]; IMR90 in vitro,"induces IL-6, indicative of elevated SASP"
same,expression of p16^ink4a and FOXO4,[2]; IMR90 in vitro,induces expression of p 16^ink4a and FOXO4 in IMR90 in vitro
same,induction of senescence in vivo (RLUC),"[3]; 10 mg/kg i.p., p16::3MR mice",induces p16^ink4a-mediated senescence in vivo
same,"organ toxicity (liver, pancreas)","[4]; mouse, in vivo, ip, 10 mg/kg",caused organ toxicity
same,total body weight,"[4]; two doses 10 mg/kg i.p., mice",causes a drop in body weight
OO [H2O2],"LOX-IMVI viability, individually",[1]; FOXO4 DRI or H2O2 alone,only marginally influenced LOX-IMVI viability
"CCOC(=O)c1c2c3c(cccc3[nH]c1=O)C(=O)c1ccccc1-2 [NQDI, 2,7-Dihydro-2,7-dioxo-3H-naphtho[1,2,3-de]quinoline-1-carboxylic acid ethyl ester]","% viability over Mock, senescent and non-senescent IMR90",[5]; 0-20 μM,"clearly reduces cell viability in senescent, but not non-senescent IMR90 fibroblasts"
same,effect on non-senescent cells at high dose,[5]; 20 uM,not affected
same,"cell density, sequential rounds",[6],enhance its effectivity towards senescent cell clearance
"COc1cc(Nc2ncc(F)c(Nc3ccc4c(n3)NC(=O)C(C)(C)O4)n2)cc(OC)c1OC [R406, 6-(5-fluoro-2-(3,4,5-trimethoxyphenylamino)pyrimidin-4-ylamino)-2,2-dimethyl-2H-pyrido[3,2-b][1,4] oxazin-3 (4H)-one benzenesulfonate]","% viability over Mock, senescent and non-senescent IMR90","[5]; 16, 32, 64 to 128 nM",selectively reduces senescent cell viability
same,SA-beta-GAL deposits in kidneys,"[3]; Doxorubicin 10 mg/kg i.p. day 0, once daily i.v. day 11-14",reduced SA-beta-GAL deposits in kidneys
same,Doxorubicin-induced senescence in vivo (bioluminescence),"[3]; Doxorubicin 10 mg/kg i.p. day 0, once daily i.v. day 11-14, imaging day 11 and day 21",repress Doxorubicin-induced senescence in vivo
